Source: US20230255954A1, “INTERLEUKIN 33 (IL-33) INHIBITION FOR TREATMENT OF CANCER, FIBROSIS AND INFLAMMATION” (The General Hospital Corporation, priority 2020, published 2023)

What was measured:
[1] = tested on: IRF3 nuclear translocation; experiment: Nuclear fractionation assay, IRF3 in poly (I:C) treated Pam212 cells; type: cell-based, mouse
Experimental: Pam212 cell line was transfected with poly (I:C) using Lipofectamine 2000 according to the manufacturer's instructions. After 8 hours, cells were lysed using Nuclear Extraction Kit (Novus biologicals, Littleton, Colo., catalog no. NBP2-29447). Briefly, cells were washed with 1×PBS supplemented with PMSF (Novus biologicals, catalog no. KC-407). Cells were centrifuged for 5 min at 1,000 rpm. Cell pellets were resuspended in 1× cold hypotonic buffer (Novus biologicals, catalog no. KC-401) and incubated on ice for 15 min. After adding 10 μL of the 10% detergent solution (Novus biologicals, catalog no. KC-403), cell lysates were centrifuged 10 min at 14,000 rpm. The supernatants were kept as cytoplasmic fraction and the cell pellets were resuspended in 100 μL nuclear lysis buffer (Novus biologicals, catalog no. KC-402). Lysates from the pellets were sonicated for few seconds and incubated for 10 min at 4° C. Then, lysates were centrifuged at 14,000 rpm for 10 min. The supernatants were kept as nuclear fraction.
Next, to investigate the mechanism by which pitavastatin can block IL-33 expression, we first confirmed p-IRF3 expression level because IRF3 is a transcription factor of IL-33 expression. […] However, pitavastatin treatment with Poly (I:C) to Pam212 cells, level of p-IRF3 was decreased (FIG. 11A). […]

[2] = tested on: IRF3 nuclear localization; experiment: IRF3 nuclear immunofluorescence staining in poly (I:C) treated Pam212 cells; type: cell-based, mouse; conditions: compared to only Poly (I:C) treated group
Experimental: For immunofluorescence staining, Pam212 cells were permeated with 1×PBS supplemented with 0.2% Triton X-100 for 5 min. Slides were washed three times for three minutes each in 1×PBS with 0.1% TWEEN20. Slides were blocked with 1% bovine serum albumin and 5% goat serum for 1 hour. The slides were stained overnight at 4° C. with IRF3 antibody. The following day, slides were washed as above and incubated for two hours at room temperature with secondary antibodies conjugated to fluorochromes. Next, slides were incubated with 1:2000 DAPI (Thermo Fisher Scientific, catalog no. D3571) for five minutes at room temperature, then washed as above. Slides were mounted with Prolong Gold Antifade Reagent (Thermo Fisher Scientific, catalog no. P36930).
Next, to investigate the mechanism by which pitavastatin can block IL-33 expression, we first confirmed p-IRF3 expression level because IRF3 is a transcription factor of IL-33 expression. […] However, pitavastatin treatment with Poly (I:C) to Pam212 cells, level of p-IRF3 was decreased (FIG. 11A). […] After IRF3 are phosphorylated by upstream, p-IRF3 can translocate to nucleus as a transcription factor.

[3] = tested on: DNFB treated mice back skin; experiment: DNFB chronic skin inflammation model with pitavastatin; type: in vivo, mouse
Experimental: Four- to six-week old male and female mice were shaved on their abdomen and sensitized to 50 μL 0.5% 1-Fluoro-2,4-dinitrobenzene (DNFB, Millipore Sigma, St. Louis, Mo., catalog no. 42085) dissolved in acetone plus olive oil at 3:1 ratio (refer to as acetone). Two days after first sensitization, mice were re-sensitized to 50 μL 0.25% DNFB on their abdomen. After 5 days, mice were challenged with 100 μL 0.25% DNFB on their back skin, which was repeated three times per week for 22 days. Skin rash was monitored over the duration of the study.
Mice were treated with 0.5 mM pitavastatin in 200 μL 70% ethanol or 200 μL 70% ethanol alone to their back skin twice a week. Pitavastatin/70% ethanol treatments were given in DNFB doses.
Tissue samples were collected and fixed in 4% paraformaldehyde (Millipore Sigma, catalog no. P6148) overnight at 4° C. Next, tissues were dehydrated in ethanol, processed and embedded in paraffin. 5 μm sections paraffin-embedded tissues were placed on slides, deparaffinized and stained with H&E or toluidine blue (for mast cell detection). For immunohistochemistry, antigen retrieval was performed in 500 μL of antigen unmasking solution (VECTOR Laboratories, Burlingame, Calif., catalog no. H3300) diluted in 50 mL water using Cuisinart pressure cooker for 20 min at high pressure. Slides were washed three times for three minutes each in 1×TBS with 0.025% Triton X-100. Sections were blocked with 1% bovine serum albumin (Thermo Fisher Scientific, catalog no. BP1600) and 5% goat serum (Millipore Sigma, catalog no. G9023) for 1 hour. Slides were stained overnight at 4° C. with a primary antibody diluted in TBS containing 1% BSA (Appendix Table S2). The following day, slides were washed as above and incubated in 100 μL biotinylated secondary antibody (VECTOR Laboratories, catalog no. PK-6200) for 30 min. After washing, slides were incubated with 100 μL mixture of reagent A and B from VECTASTAIN Elite ABC universal kit Peroxidase (VECTOR Laboratories, catalog no. PK-6200) for 30 min. After washing, slides were incubated with 100 μL ImmPACT DAB chromogen stating (VECTOR Laboratories, catalog no. SK-4105) for a few minutes. Finally, slides dehydrated in ethanol and xylene and mounted with a coverslip using 3 drops of mounting media.
Next, we also investigated effect of pitavastatin in vivo chronic inflammation model. […] Next, we studied the effect of pitavastatin treatment on chronic inflammation in mice. […] Furthermore, both IL-33 and nuclear IRF3 were reduced in same epithelial region of DNFB plus pitavastatin versus DNFB plus carrier treated mice (FIGS. 12D and E). Thus, pitavastatin is a small molecule IL-33 inhibitor that suppresses skin inflammation.

[4] = DNFB plus pitavastatin versus DNFB plus carrier
[5] = topical DNFB plus pitavastatin vs DNFB plus carrier

With `O=C(O)C[C@H](O)C[C@H](O)/C=C/c1c(C2CC2)nc2ccccc2c1-c1ccc(F)cc1` [pitavastatin] the “IRF3 localization by nuclear fractionation” value [1] was “remains IRF3 in cytoplasm”, the IRF3 nuclear localization [2] was “blocked” and the “chronic inflammation in back skin” value ([3]; 0.5 mM pitavastatin in 200 μL 70% ethanol on back skin twice a week, compared to only DNFB treated mice) was “mild chronic inflammation”. For the same molecule, the “IL-33 in epithelial region (staining)” value [3, 4] was “reduced”, the “nuclear IRF3 in epithelial region (staining)” value [3, 4] was “reduced” and the “IL-33 expression, RNA level” value ([3]; DNFB treated mice skin) was “decreased”. The “IL-33 expression, protein level” value ([3]; DNFB treated mice skin) was “decreased”, the p-IRF3 ([3]; compared to only DNFB treated group) was “decreased” and the epidermal thickness [3, 5] was “reduced”. The mast cell infiltration [3, 5] was “reduced”.
